This is an account of results in patent US20130267513A1, “PYRAZOLOPYRIDINES AS INHIBITORS OF THE KINASE LRRK2” (priority 2010, published 2013).

Assay [1] addresses T1, LRRK2 (Homo sapiens, UniProt Q5S007). The assay is described as follows: LRRK2 KI determination. The assay is classed as biochemical.
Target sequence in this assay (Q5S007 970-2527): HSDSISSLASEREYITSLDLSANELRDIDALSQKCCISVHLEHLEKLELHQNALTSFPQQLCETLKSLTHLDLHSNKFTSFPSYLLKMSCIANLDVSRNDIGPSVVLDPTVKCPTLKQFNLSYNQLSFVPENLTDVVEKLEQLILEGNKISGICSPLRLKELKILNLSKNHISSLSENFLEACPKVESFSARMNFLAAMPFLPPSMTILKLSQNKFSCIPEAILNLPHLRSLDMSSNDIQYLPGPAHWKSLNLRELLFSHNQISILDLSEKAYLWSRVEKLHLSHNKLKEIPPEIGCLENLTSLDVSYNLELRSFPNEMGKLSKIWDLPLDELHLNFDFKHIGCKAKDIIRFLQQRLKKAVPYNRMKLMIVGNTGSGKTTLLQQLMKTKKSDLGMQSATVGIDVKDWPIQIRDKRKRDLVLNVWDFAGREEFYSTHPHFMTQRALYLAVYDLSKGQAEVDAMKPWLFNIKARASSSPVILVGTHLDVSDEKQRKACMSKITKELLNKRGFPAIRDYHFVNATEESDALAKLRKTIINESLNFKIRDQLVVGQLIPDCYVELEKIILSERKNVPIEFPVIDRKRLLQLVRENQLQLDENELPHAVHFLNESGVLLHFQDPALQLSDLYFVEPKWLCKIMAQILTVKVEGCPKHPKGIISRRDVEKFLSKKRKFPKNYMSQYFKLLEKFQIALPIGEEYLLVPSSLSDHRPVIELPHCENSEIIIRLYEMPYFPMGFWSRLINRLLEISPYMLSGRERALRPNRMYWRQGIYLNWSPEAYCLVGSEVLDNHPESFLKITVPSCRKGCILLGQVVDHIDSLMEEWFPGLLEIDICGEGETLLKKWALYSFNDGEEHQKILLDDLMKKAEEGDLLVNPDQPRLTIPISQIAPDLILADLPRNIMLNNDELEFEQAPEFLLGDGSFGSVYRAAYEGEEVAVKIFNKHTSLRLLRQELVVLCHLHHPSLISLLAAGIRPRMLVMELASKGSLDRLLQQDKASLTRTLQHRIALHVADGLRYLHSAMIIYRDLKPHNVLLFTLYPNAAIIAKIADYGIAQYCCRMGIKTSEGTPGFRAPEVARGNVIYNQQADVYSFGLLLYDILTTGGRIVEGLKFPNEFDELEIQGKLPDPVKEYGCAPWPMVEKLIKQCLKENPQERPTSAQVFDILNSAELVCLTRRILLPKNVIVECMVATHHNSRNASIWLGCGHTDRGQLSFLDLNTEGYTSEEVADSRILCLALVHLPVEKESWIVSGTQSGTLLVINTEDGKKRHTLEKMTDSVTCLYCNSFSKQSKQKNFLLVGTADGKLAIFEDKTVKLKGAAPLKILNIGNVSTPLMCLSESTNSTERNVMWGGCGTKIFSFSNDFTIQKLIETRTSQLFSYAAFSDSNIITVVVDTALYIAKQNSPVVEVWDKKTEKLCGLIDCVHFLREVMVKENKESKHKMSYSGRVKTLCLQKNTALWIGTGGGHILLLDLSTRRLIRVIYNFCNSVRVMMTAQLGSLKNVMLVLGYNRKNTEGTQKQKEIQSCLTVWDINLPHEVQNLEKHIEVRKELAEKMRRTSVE
Assay [2] has as its target T1, LRRK2. Nature of the assay: LRRK2 protein kinase assay ([γ-33P] ATP, peptide substrate), IC50. It counts as biochemical. Set-up: Potency scores (LRRK2 IC50); the wild type has the same borders, PV4873; fused on or other part: GST tag. As to conditions: LRRK2 form (G2019S or wild type) not given; read-out: Potency scores (LRRK2 IC50). From the text:
All LRRK2 protein kinases were of human origin and were sourced from Invitrogen Corporation (Carlsbad, Calif. 92008 USA) unless otherwise indicated. The active mutant used was recombinant human, catalytic domain (amino acids 970-2527) containing a G2019S mutation, GST-tagged, expressed in insect cells (Invitrogen Cat#PV4881). The wild type used was recombinant human, catalytic domain (amino acids 970-2527) GST—tagged, expressed in insect cells (Invitrogen Cat#PV4873). The kinase dead mutant used was recombinant human, catalytic domain (amino acids 970-2527) containing a D1994A mutation, GST-tagged, expressed in insect cells (Invitrogen Cat#PM4041AE). No special measures were taken to activate any of the kinases.
All assays were carried out at room temperature ([…]) and were linear with respect to time and enzyme concentration under the conditions used. Assays were performed for 180 min in a 96 well format. LRRK2 was present at a concentration of approximately 5 nM.
The enzyme was diluted and assayed in 50 mM Tris-HCl pH7.5, 0.1 mM EGTA, 1 mM DTT and 10 mM MgCl2. The concentration of magnesium chloride in the assay was 10 mM. The [γ-33P] ATP (0.4 μCi/well) was used at 134 uM for G2019S mutant and at 57 μM for the wild type kinase in order to be at Km. The peptide substrate in the assay was […] at 100 μM.
The assays were initiated with Mg/ATP and stopped by the addition of 25 μl/well 50% orthophosphoric acid. Reactions were harvested onto Whatman P81 Unifilter Plates (Fisher Scientific. Loughborough, LE115RG, UK. Cat# FDU-105-020U) using a Tomtec harvester (Tomtec Hamden, Conn. 06514. USA). Plates were counted using a Perkin Elmer Top Count NX7. (Perkin Elmer, Shelton CT 06484-4794 USA)
IC50 values of inhibitors were determined after carrying out assays at 10 different concentrations of each compound in duplicate.
Target sequence in this assay (Q5S007 whole entry G2019S, form open, the tested form may be a part): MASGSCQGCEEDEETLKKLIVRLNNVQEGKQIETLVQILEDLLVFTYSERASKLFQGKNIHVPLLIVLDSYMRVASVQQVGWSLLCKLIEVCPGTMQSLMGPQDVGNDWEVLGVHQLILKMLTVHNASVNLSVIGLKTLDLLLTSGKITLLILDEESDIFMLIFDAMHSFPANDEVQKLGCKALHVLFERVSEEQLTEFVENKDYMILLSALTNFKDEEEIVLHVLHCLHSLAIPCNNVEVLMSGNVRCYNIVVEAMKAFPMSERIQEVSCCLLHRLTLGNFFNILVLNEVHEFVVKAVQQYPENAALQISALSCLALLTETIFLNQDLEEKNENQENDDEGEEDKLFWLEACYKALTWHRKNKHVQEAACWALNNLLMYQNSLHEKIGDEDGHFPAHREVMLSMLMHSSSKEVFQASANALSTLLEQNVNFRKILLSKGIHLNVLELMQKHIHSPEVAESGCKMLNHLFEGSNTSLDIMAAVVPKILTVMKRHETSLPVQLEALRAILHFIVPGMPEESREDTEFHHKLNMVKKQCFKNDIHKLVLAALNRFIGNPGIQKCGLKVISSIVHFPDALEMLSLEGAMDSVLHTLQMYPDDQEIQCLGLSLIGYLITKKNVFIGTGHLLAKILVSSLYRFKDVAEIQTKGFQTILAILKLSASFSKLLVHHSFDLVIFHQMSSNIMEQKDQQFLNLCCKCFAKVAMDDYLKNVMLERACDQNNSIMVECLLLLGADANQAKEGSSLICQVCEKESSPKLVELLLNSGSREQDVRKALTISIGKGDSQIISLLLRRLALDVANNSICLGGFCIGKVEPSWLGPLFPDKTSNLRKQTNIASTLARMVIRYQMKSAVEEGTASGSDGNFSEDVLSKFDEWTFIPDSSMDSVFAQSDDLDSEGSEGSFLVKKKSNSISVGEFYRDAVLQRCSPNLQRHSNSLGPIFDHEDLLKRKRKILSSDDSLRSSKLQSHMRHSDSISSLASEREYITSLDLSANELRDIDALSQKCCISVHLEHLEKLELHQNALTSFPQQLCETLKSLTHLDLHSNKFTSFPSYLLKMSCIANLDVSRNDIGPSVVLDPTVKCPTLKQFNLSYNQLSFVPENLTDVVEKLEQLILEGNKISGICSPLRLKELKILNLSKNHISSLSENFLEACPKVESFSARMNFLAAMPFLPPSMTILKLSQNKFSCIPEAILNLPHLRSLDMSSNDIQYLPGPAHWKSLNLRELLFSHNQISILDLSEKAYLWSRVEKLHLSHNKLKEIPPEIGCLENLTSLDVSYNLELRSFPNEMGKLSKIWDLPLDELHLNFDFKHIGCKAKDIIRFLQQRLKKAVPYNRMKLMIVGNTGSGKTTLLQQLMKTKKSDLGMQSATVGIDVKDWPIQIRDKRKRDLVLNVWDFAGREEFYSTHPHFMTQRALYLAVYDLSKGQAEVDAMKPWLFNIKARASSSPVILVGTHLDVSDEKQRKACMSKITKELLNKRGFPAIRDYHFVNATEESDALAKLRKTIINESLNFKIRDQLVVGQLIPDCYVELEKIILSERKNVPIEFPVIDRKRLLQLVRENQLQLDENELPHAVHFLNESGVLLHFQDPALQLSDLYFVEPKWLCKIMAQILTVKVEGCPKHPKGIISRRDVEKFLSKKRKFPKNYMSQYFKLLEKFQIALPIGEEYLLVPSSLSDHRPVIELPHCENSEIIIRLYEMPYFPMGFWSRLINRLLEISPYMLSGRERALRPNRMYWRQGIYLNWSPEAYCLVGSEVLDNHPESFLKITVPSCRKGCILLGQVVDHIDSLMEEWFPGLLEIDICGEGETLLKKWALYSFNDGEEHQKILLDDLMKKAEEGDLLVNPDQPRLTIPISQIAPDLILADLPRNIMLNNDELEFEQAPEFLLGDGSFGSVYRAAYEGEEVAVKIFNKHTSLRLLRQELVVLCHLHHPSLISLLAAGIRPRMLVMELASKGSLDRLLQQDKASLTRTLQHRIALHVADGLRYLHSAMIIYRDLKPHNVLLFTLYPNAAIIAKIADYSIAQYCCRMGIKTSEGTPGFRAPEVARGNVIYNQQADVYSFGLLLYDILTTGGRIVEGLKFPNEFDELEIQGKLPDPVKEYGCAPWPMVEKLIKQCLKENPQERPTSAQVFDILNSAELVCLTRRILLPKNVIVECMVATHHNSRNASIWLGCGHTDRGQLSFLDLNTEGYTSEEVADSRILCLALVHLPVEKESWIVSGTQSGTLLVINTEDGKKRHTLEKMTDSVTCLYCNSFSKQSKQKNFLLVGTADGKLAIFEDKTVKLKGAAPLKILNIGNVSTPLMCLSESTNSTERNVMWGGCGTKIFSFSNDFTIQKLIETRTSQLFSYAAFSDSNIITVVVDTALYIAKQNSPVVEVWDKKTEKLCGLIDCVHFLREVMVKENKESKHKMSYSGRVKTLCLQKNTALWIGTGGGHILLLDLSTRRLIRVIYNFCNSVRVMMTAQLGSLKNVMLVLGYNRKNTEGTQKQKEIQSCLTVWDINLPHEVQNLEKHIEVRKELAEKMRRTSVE

One may read the Ki as a dissociation constant, usually derived from enzyme kinetics or from competition with a known ligand. The low end stands for tighter binding, the high end for weaker binding. In the case of `Cc1cc2[nH]nc(-c3cc(C(F)(F)F)ncn3)c2c(NC2CCOCC2)n1` [Example 19, 6-methyl-N-(tetrahydro-2H-pyran-4-yl)-3-(6-(trifluoromethyl)pyrimidin-4-yl)-1H-pyrazolo[4,3-c]pyridin-4-amine], the Ki on LRRK2 [1] was < 100 nM.
Consider `Cc1cc2[nH]nc(-c3cc(C(F)(F)F)ccn3)c2c(NC2CCOCC2)n1` [Example 18, 6-methyl-N-(tetrahydro-2H-pyran-4-yl)-3-(4-(trifluoromethyl)pyridin-2-yl)-1H-pyrazolo[4,3-c]pyridin-4-amine], for which, on LRRK2 [1], the Ki is < 100 nM.
Broadly, the IC50 is the concentration that gives 50% inhibition. Consider `Cc1cc2[nH]nc(C)c2c(NC2CCCCC2)n1` [Example 5], for which the IC50 on LRRK2 [2] was in the range of 1000 to 10000 nM.
`Cc1cc2[nH]nc(-c3cnn(C4CCOCC4)c3)c2c(OC2CCOCC2)n1` [Example 24, 6-Methyl-3-(1-(tetrahydro-2H-pyran-4-yl)-1H-pyrazol-4-yl)-4-(tetrahydro-2H-pyran-4-yloxy)-1H-pyrazolo[4,3-c]pyridine]: the inhibition constant Ki at LRRK2 [1] was < 100 nM.
In the case of `Cc1cc2[nH]nc(C)c2c(OC2CCCCC2)n1` [Example 6], on LRRK2 [2], the IC50 is 100 to 1000 nM.
On LRRK2 [1], `CNC(=O)c1cccc(-c2[nH]nc3cc(C)nc(OC)c23)c1` [Example 21, 3-(4-Methoxy-6-methyl-1H-pyrazolo[4,3-c]pyridin-3-yl)-N-methylbenzamide] displayed a Ki of 100 to 1000 nM.
Turning to `Cc1cc2[nH]nc(-c3ccnc(N4CCOCC4)c3)c2c(OC2CCOCC2)n1` [Example 22, 4-(4-(6-Methyl-4-(tetrahydro-2H-pyran-4-yloxy)-1H-pyrazolo[4,3-c]pyridin-3-yl)pyridin-2-yl)morpholine], at LRRK2 [1], the Ki is < 100 nM.
At LRRK2 [1], `Cc1[nH]nc2cc(C3CC3)nc(OC3CCCCC3)c12` [Example 14, 4-(cyclohexyloxy)-6-cyclopropyl-3-methyl-1H-pyrazolo[4,3-c]pyridine] returned a Ki of 100 to 1000 nM.
With `Cc1cc2[nH]nc(C)c2c(-c2ccco2)n1` [Example 7], the IC50 on LRRK2 [2] is 100 to 1000 nM.
For the compound `Cc1n[nH]c2cncc(NC3CCCCC3)c12` [Example 9], the half-maximal inhibitory concentration (IC50) on LRRK2 [2] lay within 100 to 1000 nM.
Regarding `CCOc1cc(-c2n[nH]c3cc(C)nc(NC4CCOCC4)c23)ncn1` [Example 17, 3-(6-ethoxypyrimidin-4-yl)-6-methyl-N-(tetrahydro-2H-pyran-4-yl)-1H-pyrazolo[4,3-c]pyridin-4-amine], at LRRK2 [1], the Ki is < 100 nM.
At LRRK2 [1], `CNC(=O)c1cccc(-c2[nH]nc3cc(C)nc(OC4CCOCC4)c23)c1` [Example 23, N-Methyl-3-(6-Methyl-4-(tetrahydro-2H-pyran-4-yloxy)-1H-pyrazolo[4,3-c]pyridin-3-yl)benzamide] yielded a Ki of 100 to 1000 nM.
On to `COc1nc(C)cc2[nH]nc(-c3ccnc(N4CCOCC4)c3)c12` [Example 20, 4-(4-(4-methoxy-6-methyl-1H-pyrazolo[4,3-c]pyridin-3-yl)pyridin-2-yl)morpholine], for which, on LRRK2 [1], the inhibition constant (Ki) was 100 to 1000 nM.
Take `Cc1n[nH]c2cc(-c3cnn(C)c3)nc(OC3CCCCC3)c12` [Example 4]: at LRRK2 [2], the IC50 lay in the range of 1000 to 10000 nM.
With `Cc1n[nH]c2cc(Cl)nc(NC3CCCCC3)c12` [Example 1], the IC50 at LRRK2 [2] lay in the range of 100 to 1000 nM.
For the compound `Cc1n[nH]c2cc(Cl)nc(OC3CCCCC3)c12` [Example 2], the 50% inhibitory concentration (IC50) at LRRK2 [2] lay in the range of 100 to 1000 nM.
Consider `Cc1cc2[nH]nc(-c3cc(C(=O)N(C)C)ccn3)c2c(NC2CCOCC2)n1` [Example 16, N,N-dimethyl-2-(6-methyl-4-(tetrahydro-2H-pyran-4-ylamino)-1H-pyrazolo[4,3-c]pyridin-3-yl)isonicotinamide], for which the inhibitory constant (Ki) at LRRK2 [1] lay within 100 to 1000 nM.
`Clc1cc2[nH]nc(-c3ccnc(N4CCOCC4)c3)c2c(OC2CCOCC2)n1` [Example 12, 4-(4-(6-chloro-4-(tetrahydro-2H-pyran-4-yloxy)-1H-pyrazolo[4,3-c]pyridin-3-yl)pyridin-2-yl)morpholine]: at LRRK2 [1], the inhibition constant (Ki) was < 100 nM.
Regarding `Cc1n[nH]c2cncc(OC3CCCCC3)c12` [Example 10], the IC50 at LRRK2 [2] is 100 to 1000 nM.
Take `CC(C)Cn1cc(-c2n[nH]c3cc(C#N)nc(OC4CCOCC4)c23)cn1` [Example 11, 3-(1-isobutyl-1H-pyrazol-4-yl)-4-(tetrahydro-2H-pyran-4-yloxy)-1H-pyrazolo[4,3-c]pyridine-6-carbonitrile]: the inhibitory constant (Ki) on LRRK2 [1] was < 100 nM.
In the case of `COc1nc(C)cc2[nH]nc(-c3cnn(C4CCOCC4)c3)c12` [Example 25, 4-Methoxy-6-methyl-3-(1-(tetrahydro-2H-pyran-4-yl)-1H-pyrazol-4-yl)-1H-pyrazolo[4,3-c]pyridine], on LRRK2 [1], the Ki was < 100 nM.
Consider `Cc1n[nH]c2cncc(-c3ccco3)c12` [Example 8], for which the IC50 at LRRK2 [2] was 100 to 1000 nM.
For `Cc1n[nH]c2cc(N3CCOCC3)nc(OC3CCCCC3)c12` [Example 3], the IC50 at LRRK2 [2] fell in the range of 1000 to 10000 nM.
Regarding `N#Cc1cc2[nH]nc(-c3ccnc(N4CCOCC4)c3)c2c(OC2CCOCC2)n1` [Example 13], the Ki on LRRK2 [1] lay in the range of 100 to 1000 nM.
Same read-out and setting: the result for `CC(C)n1cc(-c2n[nH]c3cc(C(F)(F)F)nc(OC4CCOCC4)c23)cn1` [Example 15, 3-(1-isopropyl-1H-pyrazol-4-yl)-4-(tetrahydro-2H-pyran-4-yloxy)-6-(trifluoromethyl)-1H-pyrazolo[4,3-c]pyridine] reads < 100 nM.
